Data taken from ChEMBL document CHEMBL4196193, “Calothrixamides A and B from the Cultured Cyanobacterium Calothrix sp. UIC 10520” (J Nat Prod, 2018).
Calls of active or inactive are those of the source. No cut-off for these calls is given here.

What was measured:
Assay type in all cases: functional, cell-based
MDA-MB-435 [1] = test: Cytotoxicity against human MDA-MB-435 cells at 10 uM after 72 hrs by CellTiter 96 AQueous One Solution Cell Proliferation Assay
MDA-MB-231 [2] = test: Cytotoxicity against human MDA-MB-231 cells at 10 uM after 72 hrs by CellTiter 96 AQueous One Solution Cell Proliferation Assay
OVCAR-3 [3] = test: Cytotoxicity against human OVCAR3 cells at 10 uM after 72 hrs by CellTiter 96 AQueous One Solution Cell Proliferation Assay
MDA-MB-435 [4] = test: Cytotoxicity against human MDA-MB-435 cells after 72 hrs by CellTiter 96 AQueous One Solution Cell Proliferation Assay; settings: MDA-MB-435, 72 h
MDA-MB-231 [5] = test: Cytotoxicity against human MDA-MB-231 cells after 72 hrs by CellTiter 96 AQueous One Solution Cell Proliferation Assay; settings: MDA-MB-231, 72 h
OVCAR-3 [6] = test: Cytotoxicity against human OVCAR3 cells after 72 hrs by CellTiter 96 AQueous One Solution Cell Proliferation Assay; settings: OVCAR-3, 72 h

CCCCCC[C@H](C)[C@@H](CCCCCCCCC(C)/C=C\C=C(/C)C(=O)N[C@@H](C)CO)OC(N)=O (some centres undefined)
Activity (MDA-MB-435 [1]): inactive | Activity (MDA-MB-231 [2]): inactive | Activity (OVCAR-3 [3]): inactive

CC(=O)O[C@H]1C(=O)[C@@]2(C)[C@H]([C@H](OC(=O)c3ccccc3)[C@]3(O)C[C@H](OC(=O)[C@H](O)[C@@H](NC(=O)c4ccccc4)c4ccccc4)C(C)=C1C3(C)C)[C@]1(OC(C)=O)CO[C@@H]1C[C@@H]2O [PACLITAXEL]
IC50 (MDA-MB-435 [4]): 3.1 nM | IC50 (MDA-MB-231 [5]): 2.6 nM | IC50 (OVCAR-3 [6]): 7.5 nM

C=CCCCC[C@H](C)[C@@H](CCCCCCCCC(C)/C=C\C=C(/C)C(=O)N[C@@H](C)CO)OC(N)=O (some centres undefined)
Activity (MDA-MB-435 [1]): inactive | Activity (MDA-MB-231 [2]): inactive | Activity (OVCAR-3 [3]): inactive
